The results in this text go back to PMC7251074, “Identification of Anti-tuberculosis Compounds From Aurone Analogs” (Frontiers in Microbiology, 2020).

The test system of data set [1] is purine nucleoside phosphorylase (PNP). Nature of the data set: Purine nucleoside phosphorylase counter-assay. It is filed as biochemical. The settings on record: aurone 50 μM; PNP 0.2 U, MESG 50 μM, potassium phosphate 10 mM. As for the experimental part: FIGURE 4 AA2A and 9504 inhibit Mtb-Cs activity. (A) Assay to measure the ability of aurones to inhibit Cs of Mtb. (B) SDS-PAGE analysis of extracted rRv3227 (left) and rRv2540c (right). Lane 1: marker (PageRuler^M Unstained); 2: crude protein extracts; 3–5: samples eluted from Ni-column by 125, 250, and 500 mM imidazole, respectively; 6: the concentrated proteins eluted by 500 mM imidazole. (C) Evaluation of 9501, 9504, 9505, and 9510 inhibitory effects on Mtb-Cs activity. (D) Evaluation of AA2A and AA8 inhibitory effects on Mtb-Cs activity. Data are means of three independent experiments ± S.D. The reaction mixture comprised Mtb-Cs, various concentrations of aurone leads, EPSP ([…]), FMN (0.04 mM) and NADH (0.3 mM). The production of chorismate from the enzymatic reaction was determined by measuring Pi production using MESG (0.2 mM) and PNP (1 U). […] The reaction mixture comprised PNP (0.2 U), MESG (50 μM), potassium phosphate (10 mM), and aurones (50 μM for 9501, 9504, 9505, and 9510; 200 μM for AA2A and AA8). No significant differences (P > 0.05) were identified between each of the aurone-treated group and the positive control group. Data are means of three independent experiments ± S.D.

In data set [2] the test system is intracellular Mtb in THP-1 cell derived macrophages. Nature of the data set: Efficacy against intracellular Mtb in THP-1 derived macrophages. It is filed as cell-based, Mycobacterium tuberculosis. Conditions: 48 h. The method, then: Human monocyte THP-1 cells were seeded at 5 × 10^4 cells / well in 96-well tissue culture black plates with clear bottoms. PMA was used to induce the monocytes to develop into macrophages for 3 days before infection. The tdTomato-expressing Mtb strain was employed for cell infection at an MOI = 20. After a 3 h incubation of the Mtb strain with THP-1 cells, extracellular bacteria were removed by washing twice with the cell culture medium. 200 μL of cell culture medium containing either 25 or 50 μM aurones or 1X MICs of amikacin (AMI, 1 μg/mL), ethambutol (ETH, 0.5 μg/mL), RIF (0.4 μg/mL) and isoniazid (INH) (0.5 μg/mL) was added to each well in triplicate and incubated for 48 h. Infected cells treated with the vehicle buffer served as negative controls. Cells were then lysed and plated for CFU counting.
FIGURE 2 Aurones inhibit intracellular Mtb. (A) Growth ratios of samples treated with the aurone leads or control drugs compared to the growth ratio of untreated control. Growth ratio of each sample = FI of each sample at 48 h / FI of the same sample at 0 h. (B) CFUs of samples treated with the aurone leads or control drugs compared to the CFU of untreated control at 0 and 48 h. 25 and 50 μM of the aurone leads were incubated with the infected cells (MOI = 20) after removing extracellular bacteria. Positive controls: AMI (1 μg/mL), ETH (0.5 μg/mL), INH (0.5 μg/mL), and RIF (0.4 μg/mL). Data are means of three independent experiments ± S.D. *P < 0.05, **P < 0.01, ****P < 0.0001.

For another data set, the system named is THP-1 cells. Nature of the data set: MTT cell viability cytotoxicity assay, THP-1 derived macrophages. It is filed as cell-based, human.
Data set [3] has as its target Mtb chorismate synthase (Mtb-Cs, Rv2540c) (Mycobacterium tuberculosis, UniProt P9WPY1). Nature of the data set: Mtb chorismate synthase activity assay (coupled, Pi production with MESG/PNP). It is filed as biochemical. The settings on record: Pi production at A360, EPSP, FMN 0.04 mM, NADH 0.3 mM.
Data set [4] deals with tdTomato-expressing Mtb in the lungs of BALB/c mice. Format: in vivo, Mycobacterium tuberculosis. Conditions: after a 12-days treatment.
In another data set the test system is HepG2 cells. The data set can be described thus: MTT cell viability cytotoxicity assay, HepG2. It is filed as cell-based, human. As for the experimental part: Cytotoxicities of the aurones were evaluated in Vero cells (ATCC), HepG2 (ATCC), and THP-1 cells (ATCC) using the standard microculture tetrazolium (MTT) cell viability assay. Media used for the Vero cells was DMEM supplemented with 10% calf serum; for HepG2 cells the media used was DMEM supplemented with 20% calf serum; and for THP-1 cells the media used was RPMI-1640 supplemented with 10% calf serum (HyClone Cosmic Calf, GE Lifesciences). Cells were seeded into a 96-well plate. For THP-1 cells, phorbol-12-myristate-13-acetate (PMA) was used to induce the monocytes to develop into macrophages for 3 days before the cytotoxicity assay. A series of two-fold dilutions of aurones or RIF were added into the cell culture media in microplates to determine the concentration that eliminated 50% of eukaryotic cell growth in a 2-days incubation. Cells without drug treatment were incubated with the vehicle buffer and served as negative controls (100% viable). Cells treated with digitonin (100 μg/mL) served as the positive controls. After a 2-days incubation, 10 μL of MTT reagent was loaded into each well, and incubated for 3 h at 37°C. Hundred microliter of detergent solution was then added into each well and the 96-well plates were incubated for 2 h. Absorbance of each sample in the 96-well plates was measured at […]. Viability of each drug-treated sample was calculated as the absorbance of the sample divided by the absorbance of the untreated sample multiplied by 100.
We determined MICs of the top six aurone leads (AA2A, AA8, 9501, 9504, 9505, and 9510) using the standard resazurin microtiter assay (REMA) ([Palomino et al., 2002]). The MIC was defined as the lowest drug concentration that prevented the color change of resazurin from blue to pink. The MICs for 9504, 9505, 9501, 9510, AA2A, and AA8 were 6.25, 12.5, 25, 25, 25, and 50 μM, respectively (Table 2). We evaluated the cytotoxic effects of aurones to human liver cells HepG2, primate kidney Vero cells and human monocyte THP-1 cells after a 2-days incubation using the microculture tetrazolium (MTT) cell viability assay. Concentration gradients of the selected aurones or RIF (as a control) were incubated with the three cell lines. We calculated half maximal inhibitory concentration (IC50) of aurones on these three cell lines. By comparing MICs with IC50, we calculated the selectivity index (SI) for each aurone lead as […].

For a further data set, the system named is Vero cells. Nature of the data set: MTT cell viability cytotoxicity assay, Vero. It is filed as cell-based, primate. The settings on record: IC50 Vero / MIC Mtb; 2880 min.
Data set [5] is described as follows: MTT cell viability cytotoxicity assay, Vero. Format: cell-based, primate. The settings on record: monkey, vero cells; MTT, 2-days incubation; read-out: IC50 Vero.
Data set [6] deals with tdTomato-expressing Mtb CDC1551 strain. The data set can be described thus: microbe, parasite or virus in culture. It is filed as cell-based, Mycobacterium tuberculosis. The settings on record: Mycobacterium tuberculosis, 72 h, aurones at 100 μM, 3 days co-incubation, tdTomato fluorescence intensity; read-out: Inhibitory rate.
The test system of another data set is Mtb CDC1551. Nature of the data set: Resazurin microtiter assay (REMA) for MICs. It is filed as cell-based. The settings on record: Mycobacterium tuberculosis, CDC1551, 168 h.

≈ marks a conversion by molar mass, not a printed value.

Mtb chorismate synthase (Mtb-Cs, Rv2540c), sequence (P9WPY1 whole entry): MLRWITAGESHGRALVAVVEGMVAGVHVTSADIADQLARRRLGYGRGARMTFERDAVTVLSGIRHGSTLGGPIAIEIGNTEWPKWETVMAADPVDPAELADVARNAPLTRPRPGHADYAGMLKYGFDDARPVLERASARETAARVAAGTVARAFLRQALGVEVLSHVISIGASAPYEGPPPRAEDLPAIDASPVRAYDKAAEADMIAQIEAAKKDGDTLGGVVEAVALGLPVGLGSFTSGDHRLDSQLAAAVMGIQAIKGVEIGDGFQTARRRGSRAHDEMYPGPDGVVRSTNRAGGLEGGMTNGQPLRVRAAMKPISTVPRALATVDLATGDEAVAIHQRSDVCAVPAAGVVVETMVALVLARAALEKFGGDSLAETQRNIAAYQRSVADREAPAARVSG

Regarding `CN(C)c1ccc(C=C2Oc3cc(Cl)ccc3C2=O)cc1` [Aurone 9501], the “inhibition of PNP” value in data set [1] is reported as “do not inhibit”. For the same compound, in data set [2] (50 μM), the “Mtb CFU compared to the initial intracellular Mtb load (0 h)” value was “reduced Mtb CFU significantly”. The “CFUs of intracellular Mtb at 48 h compared to before treatment (0 h)” value in data set [2] (25 and 50 μM) was “did not increase”. For the same compound, the IC50 in the data set on THP-1 cells (Homo sapiens, THP-1, 48 h, read-out: IC50 THP-1) came out at 325 µM; in data set [3] it was 5.36 ± 1.65 µM; in the data set on HepG2 cells (Homo sapiens, HepG2, 48 h, read-out: IC50 HepG2) it was 396 µM. Further, the “SI (IC50/MIC) THP-1” value in the data set with THP-1 cells (IC50 THP-1 / MIC Mtb, 2880 min) was 12.98. Moreover, in data set [4], the “Mtb load in the lungs of infected mice” value is given as “significantly reduced”. Further, in the data set with HepG2 cells (IC50 HepG2 / MIC Mtb, 2880 min), the “SI (IC50/MIC) HepG2” value is on record as 15.85. In addition, the selectivity index in the data set with HepG2 cells (on all three cell lines (HepG2, Vero, THP-1)) was over 10. Further, the “SI (IC50/MIC) Vero” value in the data set on Vero cells amounted to 44.50. In addition, in data set [5], the CC50 at 48 h is 1110 µM. Moreover, in data set [6], the inhibition at 100 µM is 85 ± 2.24%. The same compound displayed an MIC against Mtb CDC1551 of 25 µM (≈ 7.49 µg/mL).
